Measurements: US20250320227A1, “MACROCYCLIC OREXIN RECEPTOR AGONISTS AND USES THEREOF” (Jazz Pharmaceuticals Ireland Limited, priority 2022, published 2025)

Molecular target: T1, human recombinant OX2 (hOX2) receptors expressed in CHO cells (Homo sapiens, UniProt O43614)
T1 construct: host or cells: CHO cells (hOX2-CHO)
T1 sequence (O43614 1-444): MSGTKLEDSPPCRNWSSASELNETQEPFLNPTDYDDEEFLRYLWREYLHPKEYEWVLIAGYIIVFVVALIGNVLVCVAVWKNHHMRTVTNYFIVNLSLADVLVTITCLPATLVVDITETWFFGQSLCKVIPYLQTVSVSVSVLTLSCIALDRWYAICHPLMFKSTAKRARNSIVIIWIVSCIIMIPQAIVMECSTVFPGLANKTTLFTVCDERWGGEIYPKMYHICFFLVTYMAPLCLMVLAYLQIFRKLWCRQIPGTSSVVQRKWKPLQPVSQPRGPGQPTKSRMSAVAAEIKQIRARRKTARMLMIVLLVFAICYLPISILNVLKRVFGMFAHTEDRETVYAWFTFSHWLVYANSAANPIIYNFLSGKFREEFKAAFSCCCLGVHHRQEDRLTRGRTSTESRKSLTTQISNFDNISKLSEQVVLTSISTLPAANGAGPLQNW
Assay: IP-1 accumulation assay (IP-One HTRF) in hOX2-CHO cells
Assay type: cell-based
Settings: 60 min incubation at 37° C., mean of at least two independent experiments, read-out: EC50_OX2R Category
Experimental: The accumulation of Inositol-1 Monophosphate (IP-1) was measured using IP-One HTRF® Terbium cryptate based assay (Cisbio) in human recombinant OX1 (hOX1) and at OX2 (hOX2) receptors expressed in CHO cells (DiscoverX) according to the manufacturer's instructions for cells tested in suspension.
hOX1-CHO and hOX2-CHO cells were seeded into white 384-well plates at a density of 20,000 cells/well in Hank's Balanced Salt Solution (HBSS) containing 20 mM HEPES pH 7.4, 50 mM, LiCl and 0.1% and Bovine Serum Albumin (BSA).
Compounds of disclosure were tested in an 11 points concentration response curve (CRC) serially diluted in neat DMSO at 200 fold concentrations and added by Echo acoustic liquid handling (Labcyte) to the cells (0.5% DMSO final in the assay). After 60 min of incubation at 37° C. detection reagents, IP1-d2 tracer and anti-IP1-cryptate were diluted in lysis buffer according to the manufacturer's descriptions and added to the cells.
Following 60 min incubation at room temperature, time-resolved fluorescence (HTRF) was measured at 615 nm and 665 nm by Envision Multilabel reader (Perkin Elmer) and the HTRF ratio (A665/A615×10^4) was calculated.
The IP-1 accumulation response was expressed as percentage of the maximal OX-A response.
Curve fitting and EC50 estimations were carried out using a four-parameter logistic model using XLfit Software. Mean data of EC50 are calculated from at least two independent experiments performed in duplicates

## O=C1CCOc2ccccc2[C@H]2CC[C@H](CC2)OCC2N1CCCC21CCCS(=O)(=O)N1 (stereo partly drawn) [Example 60, Rel-(1s, 16R,17R,20s)-8,19-dioxa-12-azaspiro[tetracyclo[18.2.2.0^2,70.0^12,17]tetracosane-16,3′-[1λ^6,2]thiazinane]-2 (7),3,5-triene-1′,1′,11-trione]
  EC50: 100 to 1000 nM

## O=C1COCC2(CCCN3C(=S)COc4ccccc4[C@H]4CC[C@H](CC4)OCC32)N1 (stereo partly drawn) [Example 66, Rel-(1′s,3S,16′R,19′s)-10′-sulfanylidene-8′,18′-dioxa-11′-azaspiro[morpholine-3,15′-tetracyclo[17.2.2.0^2,70.0^11,16]tricosane]-2′(7′),3′,5′-trien-5-one]
  EC50: 1000 to 10000 nM

## O=C1COC[C@@]2(CCCN3C(=O)CCCCOc4cccc(n4)[C@H]4CC[C@H](CC4)OC[C@H]32)N1 (single isomer, unassigned) [Example 76b]
  EC50: < 100 nM

## O=C1COC[C@]2(CCCN3C(=O)COc4c(F)cccc4[C@H]4CC[C@H](CC4)OC[C@@H]32)N1 (single isomer, unassigned) [Example 38b]
  EC50: 1000 to 10000 nM

## O=C1COCC2(CCCN3C(=O)OCCc4ccccc4[C@H]4CC[C@H](CC4)OCC32)N1 (mixture of isomers) [Example 52, Rel-(1′s,3S,17′R,20's)-10′,19′-dioxa-12′-azaspiro[morpholine-3,16′-tetracyclo [18.2.2.0^2,70.0^12,17]tetracosane]-2′(7′), 3′,5′-triene-5,11′-dione]
  EC50: 1000 to 10000 nM

## O=C1COCC2(CCN3C(=O)CCOc4c(F)cc(F)cc4[C@H]4CC[C@H](CC4)OCC32)N1 (mixture of isomers) [Example 11, Rel-(1′s,3S,16′R,19′s)-4′,6′-difluoro-8′,18′-dioxa-12′-azaspiro[morpholine-3,15′-tetracyclo[17.2.2.0^2,70.0^12,16]tricosane]-2′(7′),3′,5′-triene-5,11′-dione]
  EC50: 100 to 1000 nM

## O=C1COC[C@@]2(CCN3C(=O)CCOc4ccccc4[C@H]4CC[C@H](CC4)OC[C@H]32)N1 (single isomer, unassigned) [Example 1a]
  EC50: < 100 nM

## O=C1N[C@@]2(CCCN3C(=O)COc4ccccc4[C@H]4CC[C@H](CC4)OC[C@@H]32)CO1 (single isomer, unassigned) [Example 67b]
  EC50: > 10000 nM

## O=C1COC[C@]2(CCCN3C(=O)C4(CC4)COc4cccc(F)c4[C@H]4CC[C@H](CC4)OC[C@@H]32)N1 (single isomer, unassigned) [Example 72a, (1′s,16′R,17′S,20′s)-3′-fluorodispiro [cyclopropane-1,10′-[8,19]dioxa-[12]azatetracyclo [18.2.2.0^2,^7.0^12,^17]tetracosane-16′,3″- morpholine]-2′,4′,6′-triene-5″,11′-dione]
  EC50: 1000 to 10000 nM

## CC1Oc2ccccc2[C@H]2CC[C@H](CC2)OC[C@@H]2N(CCC[C@@]23COCC(=O)N3)C1=O (single isomer, unassigned) [Example 35a]
  EC50: < 100 nM

## C[C@@H]1C[C@@]2(COCC(=O)N2)[C@@H]2CO[C@H]3CC[C@H](CC3)c3cc(F)ccc3OCC(=O)N12 (single isomer, unassigned) [Example 18a]
  EC50: < 100 nM

## O=C1COCC2(CCCN3C(=O)COc4ccc(F)cc4[C@H]4CC[C@H](CC4)OCC32)N1 (stereo partly drawn) [Example 41, Rel-(1′s,3S,16′R,19′s)-4′-fluoro-8′,18′-dioxa-11′-azaspiro[morpholine-3,15′-tetracyclo[17.2.2. 0^2,^7.0^11,^16]tricosane]-2′(7′),3′,5′-triene-5,10′-dione]
  EC50: < 100 nM

## C[C@H]1CC(=O)N2CC[C@]3(COCC(=O)N3)[C@H]2CO[C@H]2CC[C@H](CC2)c2ccccc2O1 (single isomer, unassigned) [Example 4a]
  EC50: > 10000 nM

## O=C1COC[C@@]2(CCN3C(=O)CCOc4cccc(F)c4[C@H]4CC[C@H](CC4)OC[C@H]32)N1 (single isomer, unassigned) [Example 10a]
  EC50: < 100 nM

## O=C1CS[C@@]2(CCCN3C(=O)COc4ccccc4[C@H]4CC[C@H](CC4)OC[C@H]32)N1 (single isomer, unassigned) [Example 68a]
  EC50: 100 to 1000 nM

## O=C1COCC2(CCCN3C(=O)COc4ncccc4[C@H]4CC[C@H](CC4)OCC32)N1 (stereo partly drawn) [Example 45, Rel-(1′s,3S,16′R,19′s)-8′,18′-dioxa-6′,11′-diazaspiro [morpholine-3,15′-tetracyclo[17.2.2. 0^2,^7.0^11,^16]tricosane]-2′(7′),3′,5′-triene-5,10′-dione]
  EC50: < 100 nM

## O=C1COCC2(CCN3C(=O)CCOc4cccc(F)c4[C@H]4CC[C@H](CC4)OCC32)N1 (mixture of isomers) [Example 10, Rel-(1′s,3S,16′R,19′s)-3′-fluoro-8′,18′-dioxa-12′-azaspiro[morpholine-3,15′-tetracyclo[17.2.2.0^2,70.0^12,16]tricosane]-2′(7′),3′,5′-triene-5,11′-dione]
  EC50: < 100 nM

## O=C1COC[C@]2(CCCN3C(=O)CCOc4ccc(F)cc4[C@H]4CC[C@H](CC4)OC[C@@H]32)N1 (single isomer, unassigned) [Example 49b]
  EC50: < 100 nM

## Cc1ccc2c(c1)[C@H]1CC[C@H](CC1)OC[C@H]1N(C(=O)CO2)[C@H](C)C[C@]12COCC(=O)N2 (single isomer, unassigned) [Example 22b]
  EC50: > 10000 nM

## O=C1COCC2(CCCN3C(=O)CCCOc4ccccc4-c4cccc(c4F)CC32)N1 (racemic) [Example 61, Rel-(3S,18′S)-24′-fluoro-8′-oxa-13′-azaspiro[morpholine-3,17′-tetracyclo[18.3.1.0^2,70.0^13,18]tetracosane]-1′(24′),2′(7′), 3′,5′,20′,22′-hexaene-5,12′-dione]
  EC50: 1000 to 10000 nM

## O=C1COC[C@@]2(CCCN3C(=O)CCOc4ccc(F)cc4[C@H]4CC[C@H](CC4)OC[C@H]32)N1 (single isomer, unassigned) [Example 49a]
  EC50: < 100 nM

## C[C@@H]1C[C@@]2(COCC(=O)N2)[C@@H]2CO[C@H]3CC[C@H](CC3)c3cc(F)cc(F)c3OCCC(=O)N12 [Example 25a, (1′s,3S,13′R,16′R, 19′s)-4′,6′-difluoro-13′-methyl-8′,18′-dioxa-12′-azaspiro[morpholine-3,15′-tetracyclo[17.2.2. 0^2,^7.0^12,^16]tricosane]-2′,4′,6′-triene-5,11′-dione]
  EC50: < 100 nM

## O=C1COC[C@@]2(CCCN3C(=O)CCOc4ccccc4[C@H]4CC[C@H](CC4)OC[C@H]32)N1 (single isomer, unassigned) [Example 33a]
  EC50: < 100 nM

## Cc1cccc2c1[C@H]1CC[C@H](CC1)OC[C@H]1N(CCC[C@]13COCC(=O)N3)C(=O)CO2 (single isomer, unassigned) [Example 47b]
  EC50: 1000 to 10000 nM

## O=C1CCOc2ccccc2[C@H]2CC[C@H](CC2)OCC2N1CCC21COCCN1 (mixture of isomers) [Example 9, Rel-(1′s,3S,16′R,19′s)-8′,18′-dioxa-12′-azaspiro[morpholine-3,15′-tetracyclo[17.2.2.0^2,70.0^12,16]tricosane]-2′,4′,6′-trien-11′-one]
  EC50: > 10000 nM

## O=C1COC[C@@]2(CCCN3C(=O)COc4c(F)cccc4[C@H]4CC[C@H](CC4)OC[C@H]32)N1 (single isomer, unassigned) [Example 38a]
  EC50: < 100 nM

## C[C@@H]1C[C@]2(COCC(=O)N2)[C@H]2CO[C@H]3CC[C@H](CC3)c3cc(F)cc(F)c3OCCC(=O)N12 [Example 25b, (1′s,3R,13′R,16′S, 19′s)-4′,6′-difluoro-13′-methyl-8′,18′-dioxa-12′-azaspiro[morpholine-3,15′-tetracyclo[17.2.2. 0^2,^7.0^12,^16]tricosane]-2′,4′,6′-triene-5,11′-dione]
  EC50: < 100 nM

## O=C1COC[C@]2(CCCN3C(=O)COc4cc(F)cc(F)c4[C@H]4CC[C@H](CC4)OC[C@@H]32)N1 (single isomer, unassigned) [Example 42b]
  EC50: 100 to 1000 nM

## O=C1COC[C@]2(CCCN3C(=O)CCCCOc4cccc(n4)[C@H]4CC[C@H](CC4)OC[C@@H]32)N1 (single isomer, unassigned) [Example 76a]
  EC50: > 10000 nM

## O=C1COCC2(CCN3C(=O)CCCOc4ccccc4[C@H]4CC[C@H](CC4)OCC32)N1 (mixture of isomers) [Example 2, rel-(1′s,3S, 17′R,20′s)-8′,19′-dioxa-13′-azaspiro[morpholine-3, 16′-tetracyclo [18.2.2.0^2,70.0^13,17]tetracosane]-2′(7′),3′,5′-triene-5,12′-dione]
  EC50: 1000 to 10000 nM

## C[C@@H]1C[C@@]2(COCC(=O)N2)[C@@H]2CO[C@H]3CC[C@H](CC3)c3cc(F)cc(F)c3OCC(=O)N12 (single isomer, unassigned) [Example 16a]
  EC50: < 100 nM
